We go through 14 compounds from publication PMC9029992, “New α-galactosidase-inhibiting aminohydroxycyclopentanes” (RSC Advances, 2021).

Structures are written as SMILES. Where two headings read alike, the source gives them in different places. Bounds are passed on as bounds.

Experiment [1] concerns the target α-glucosidase from S. cerevisiae (GH 13). Also on record: method as in PMID 2825997. As to conditions: yeast; read-out: Ki α-Glc (yeast); cited from earlier work.
For experiment [2], the system named is α-galactosidase from E. coli (GH 36). The following applies: cited from earlier work.
Experiment [3] concerns the target T1, α-galactosidase from green coffee beans (gcb, GH 27) (Coffea arabica, UniProt Q42656).
T1 construct: Green coffee bean α-galactosidase: 50 mM sodium phosphate buffer (pH 7); from tissue; host or cells: green coffee beans
The following applies: cited from earlier work.

Experiment [4] deals with T2, Fabrazyme® (commercial recombinant lysosomal α-galactosidase, GH 27) (Homo sapiens, UniProt P06280).
T2 construct: purchased
T2 sequence (P06280 32-429): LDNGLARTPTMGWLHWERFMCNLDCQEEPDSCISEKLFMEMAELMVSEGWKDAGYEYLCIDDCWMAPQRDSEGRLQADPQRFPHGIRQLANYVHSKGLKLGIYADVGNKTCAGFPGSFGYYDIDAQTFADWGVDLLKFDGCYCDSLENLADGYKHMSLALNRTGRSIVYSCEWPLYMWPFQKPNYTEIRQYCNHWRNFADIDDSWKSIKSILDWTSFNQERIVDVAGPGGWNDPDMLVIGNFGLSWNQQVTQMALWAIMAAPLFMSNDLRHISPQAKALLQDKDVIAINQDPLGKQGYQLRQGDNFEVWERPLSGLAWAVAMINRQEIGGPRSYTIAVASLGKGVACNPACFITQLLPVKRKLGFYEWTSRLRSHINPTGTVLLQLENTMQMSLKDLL
The following applies: cited from earlier work.

For experiment [5], the system named is bovine liver α-galactosidase. Also on record: method as in PMID 15858658. As to conditions: cited from earlier work.
A further experiment addresses β-glucosidase (almonds). Also on record: method as in PMID 15064801. The following applies: reported in literature, read-out: inhibitory activity against β-glucosidase; cited from earlier work.
Experiment [6] deals with lac Z β-galactosidase from E. coli (GH 2) (Escherichia coli, UniProt P00722). The experiment can be described thus: Ki determination with E. coli lac Z β-galactosidase. Type of experiment: biochemical. The following applies: pH 7, substrate Gal-β-pNP, room temperature. As for the experimental part: (§1) Kinetic studies were performed at room temperature in an appropriate buffer for each enzyme (specific conditions can be found below). All reactions were performed in half-area 96-well-plates (Corning) and monitored with a Synergy H1 plate reader (BioTek). In each experiment, the appropriate concentration of the enzyme was incubated with different concentrations of the inhibitors for 2–5 minutes before initiating the reaction by the addition of the glycoside substrate. The initial rate was then measured by monitoring the increase in, either absorbance at 405 nm (where the aglycone is either p-nitrophenol (pNP) or 2,4-dinitrophenol (dNP)) or fluorescence at 365/455 nm (where the aglycone is 4-methylumbelliferone (MU)) for up to five minutes. Ki determinations were performed using two different substrate concentrations. For each substrate concentration, a range of three to six inhibitor concentrations was used. Dixon plots (1/v vs. [I]) were constructed to validate the use of competitive inhibition model and to assess the fit of the data. The data were then fit to a competitive inhibition model using non-linear regression analysis with Grafit 7.0.0. (Erithacus Software).
Sequence of lac Z β-galactosidase from E. coli (GH 2) (P00722 2-1024 limits assumed): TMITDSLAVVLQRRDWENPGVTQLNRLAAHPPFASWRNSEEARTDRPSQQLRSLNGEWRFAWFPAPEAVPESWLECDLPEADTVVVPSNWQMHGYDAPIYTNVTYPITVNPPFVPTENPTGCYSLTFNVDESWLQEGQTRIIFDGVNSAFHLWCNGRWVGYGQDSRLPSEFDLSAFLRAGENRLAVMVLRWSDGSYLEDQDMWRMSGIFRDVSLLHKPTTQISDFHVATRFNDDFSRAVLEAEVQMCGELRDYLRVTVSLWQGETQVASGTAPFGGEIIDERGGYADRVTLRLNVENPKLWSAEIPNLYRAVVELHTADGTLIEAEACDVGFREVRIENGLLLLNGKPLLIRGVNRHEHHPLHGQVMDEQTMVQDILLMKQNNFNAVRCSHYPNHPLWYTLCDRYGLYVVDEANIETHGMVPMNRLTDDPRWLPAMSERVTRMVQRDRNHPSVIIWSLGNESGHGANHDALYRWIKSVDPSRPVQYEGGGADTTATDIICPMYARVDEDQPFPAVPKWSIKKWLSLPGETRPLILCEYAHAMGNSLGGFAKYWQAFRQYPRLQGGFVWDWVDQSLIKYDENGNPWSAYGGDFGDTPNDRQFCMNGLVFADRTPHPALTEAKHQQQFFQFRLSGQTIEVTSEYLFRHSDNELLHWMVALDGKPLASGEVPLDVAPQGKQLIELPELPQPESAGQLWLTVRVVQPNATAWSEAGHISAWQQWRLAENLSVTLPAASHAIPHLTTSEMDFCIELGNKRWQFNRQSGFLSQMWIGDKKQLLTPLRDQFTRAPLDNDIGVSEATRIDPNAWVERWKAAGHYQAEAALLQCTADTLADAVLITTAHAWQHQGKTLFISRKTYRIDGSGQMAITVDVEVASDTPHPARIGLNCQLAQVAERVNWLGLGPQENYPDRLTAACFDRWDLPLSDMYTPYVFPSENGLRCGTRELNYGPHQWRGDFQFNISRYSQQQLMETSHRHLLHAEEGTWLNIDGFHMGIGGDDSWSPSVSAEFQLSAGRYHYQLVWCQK

For experiment [7], the target named is T3, recombinant human lysosomal β-glucocerebrosidase (GCase, GH 30) (Homo sapiens, UniProt P04062).
T3 sequence (P04062 40-536): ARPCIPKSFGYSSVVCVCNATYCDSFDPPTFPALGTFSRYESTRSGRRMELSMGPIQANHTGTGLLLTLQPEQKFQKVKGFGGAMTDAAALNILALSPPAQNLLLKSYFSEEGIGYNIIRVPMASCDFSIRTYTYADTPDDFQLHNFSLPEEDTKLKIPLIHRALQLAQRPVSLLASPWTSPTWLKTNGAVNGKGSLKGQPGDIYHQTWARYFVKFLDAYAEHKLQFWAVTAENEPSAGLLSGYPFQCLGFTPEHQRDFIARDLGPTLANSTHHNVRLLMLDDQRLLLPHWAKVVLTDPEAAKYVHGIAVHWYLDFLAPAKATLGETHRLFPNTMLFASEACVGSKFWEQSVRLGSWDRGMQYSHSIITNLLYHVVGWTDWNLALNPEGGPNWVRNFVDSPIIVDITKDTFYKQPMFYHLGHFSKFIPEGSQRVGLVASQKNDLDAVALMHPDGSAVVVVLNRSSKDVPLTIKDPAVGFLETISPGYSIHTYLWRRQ
As to the kind of experiment: Ki determination with GCase (β-glucocerebrosidase). The class given is biochemical. As to conditions: pH 7, substrate Glc-β-dNP, room temperature. The method, then:
as §1

Experiment [8] concerns the target T4, β-glucosidase/β-galactosidase from Agrobacterium sp. (Abg, GH 1) (Agrobacterium sp., UniProt P12614).
T4 sequence (P12614 1-459): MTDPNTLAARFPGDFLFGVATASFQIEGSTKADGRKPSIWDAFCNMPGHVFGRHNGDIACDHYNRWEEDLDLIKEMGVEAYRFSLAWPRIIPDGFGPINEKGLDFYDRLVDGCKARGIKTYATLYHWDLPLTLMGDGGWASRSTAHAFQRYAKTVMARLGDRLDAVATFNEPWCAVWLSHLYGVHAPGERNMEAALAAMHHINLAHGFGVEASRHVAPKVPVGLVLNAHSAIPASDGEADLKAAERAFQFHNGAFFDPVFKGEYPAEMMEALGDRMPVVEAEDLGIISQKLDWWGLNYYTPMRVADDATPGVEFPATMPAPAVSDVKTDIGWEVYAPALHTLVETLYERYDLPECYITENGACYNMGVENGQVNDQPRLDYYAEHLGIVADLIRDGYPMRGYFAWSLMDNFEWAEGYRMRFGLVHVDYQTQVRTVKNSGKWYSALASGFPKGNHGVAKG
The experiment can be described thus: Ki determination with Agrobacterium sp. β-glucosidase (Abg). The class given is biochemical. As to conditions: pH 7, substrate Gal-β-pNP, room temperature; read-out: Ki Abg (β-Glc/β-Gal) (GH 1). As for the experimental part:
as §1
Agrobacterium sp. β-glucosidase:[48,49]

The target of experiment [9] is T2, Fabrazyme® (commercial recombinant lysosomal α-galactosidase, GH 27). The experiment can be described thus: Ki determination with Fabrazyme (acid α-galactosidase). Type of experiment: biochemical. As to conditions: pH 5.5, substrate Gal-α-dNP, room temperature. The method, then: as §1
Experiment [10] concerns the target T1, α-galactosidase from green coffee beans (gcb, GH 27). As to the kind of experiment: Ki determination with green coffee bean α-galactosidase. Type of experiment: biochemical. The following applies: pH 7, substrate Gal-α-MU, room temperature. The method, then:
as §1

Experiment [11] concerns the target α-glucosidase from S. cerevisiae (GH 13). The experiment can be described thus: Ki determination with S. cerevisiae α-glucosidase. The following applies: pH 7, substrate Glc-α-pNP, room temperature; read-out: Ki S. cer. (α-Glc) (GH 13). The class given is biochemical. The method, then: as §1
S. cerevisiae α-glucosidase: 50 mM sodium phosphate buffer (pH 7). Substrate: Glc-α-pNP, Km = 0.75 mM.

[12] abbreviates: read-out: Ki gcb α-galactosidase.

T1 sequence (Q42656 16-378): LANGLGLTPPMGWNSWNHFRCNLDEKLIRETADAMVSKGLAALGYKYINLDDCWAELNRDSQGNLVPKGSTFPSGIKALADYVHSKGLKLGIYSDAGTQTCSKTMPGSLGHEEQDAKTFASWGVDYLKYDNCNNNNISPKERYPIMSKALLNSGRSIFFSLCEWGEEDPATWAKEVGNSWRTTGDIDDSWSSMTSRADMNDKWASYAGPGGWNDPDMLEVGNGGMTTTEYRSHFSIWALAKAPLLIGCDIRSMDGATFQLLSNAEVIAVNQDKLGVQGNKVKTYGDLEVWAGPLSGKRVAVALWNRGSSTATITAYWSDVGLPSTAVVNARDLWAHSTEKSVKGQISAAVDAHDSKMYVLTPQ

For the compound `OC[C@H]1NC[C@H](O)[C@@H](O)[C@H]1O` [compound 1, 1,5-dideoxy-1,5-imino-D-galactitol], the Ki in [1] was more than 1000 µM. In addition, the IC50 (usually the midpoint of a concentration-inhibition curve) in [2] (read-out: IC50 α-galactosidase from E. coli) is 0.24 µM.
As to `OC[C@@H]1C[C@@H](O)[C@@H](O)[C@@H](CO)N1` [compound 2], the IC50 was 0.06 µM in experiment [3] (read-out: IC50 gcb galactosidase) and 32 µM in experiment [2] (read-out: IC50 E. coli enzyme).
With `OC[C@H]1CNC[C@@H](O)[C@H]1O` [compound 3, 4-epi-isofagomine], the IC50 in experiment [3] (read-out: IC50 gcb) was 200 µM.
Turning to `CCCCCCN1C[C@@H](O)[C@@H](O)[C@@](F)(CO)C1` [compound 4], the Ki is 116 µM in experiment [4] (read-out: Ki Fabrazyme®) and 0.5 µM in experiment [3] (setting [12]).
For `N[C@H]1C[C@H](CO)[C@H](O)[C@H](O)[C@H]1O` [compound 5, 4-epi-validamine], the figures for the IC50 in [3] (read-out: IC50 gcb) and in experiment [2] (read-out: IC50 E. coli) were 500 µM and 890 µM, respectively.
In the case of `N[C@@H]1[C@H](O)[C@@H](O)[C@@H](O)[C@]2(CO)C[C@H]12` [compound 6], the Ki in [3] (read-out: Ki gcb) is 0.54 µM. For the same compound, the half-maximal inhibitory concentration (IC50) in experiment [2] (read-out: IC50 E. coli) is 80 µM.
Turning to `OC[C@H]1NC[C@@H](O)[C@H]1O` [compound 7, 1,4-dideoxy-1,4-imino-D-lyxitol], the Ki in experiment [3] (setting [12]) was 0.13 µM.
For the compound `O=S1(=O)N[C@@H]2[C@H](O)[C@@H](O)[C@@H](O)[C@@H](CO)[C@@H]2O1` [compound 11], the IC50 in experiment [4] (as printed in Fig. 1) was 110 µM. In experiment [4] (read-out: Ki Fabrazyme® (α-Gal) (GH 27)), the Ki was 110 µM.
As for `OC[C@@H]1[C@H](O)[C@H](O)[C@@H](O)[C@H]1NCc1ccccc1` [compound 12], the “inhibitory activity against bovine liver α-galactosidase” value in experiment [5] is on record as “does not show any inhibitory activity”. The Ki is 0.43 µM in experiment [3] (setting [12]) and 0.51 µM at β-glucosidase (almonds).
Take `N[C@@H]1[C@H](O)[C@@H](O)[C@@H](O)[C@H]1CO` [compound 22, (1S,2S,3S,4S,5R)-4-Amino-5-(hydroxymethyl)cyclopentane-1,2,3-triol]: the Ki is 12 µM in experiment [3] (read-out: Ki gcb (α-Gal) (GH 27) (converted)); 200 ± 90 µM in [6]; 18 ± 3 µM in [7]; 0.014 ± 0.003 µM in experiment [8]; 9.5 ± 1.9 µM in experiment [9]; 6.7 ± 0.9 µM in experiment [10]. Moreover, in experiment [11], the Ki came out at 160 ± 60 µM.
As to `CCCCCCN[C@@H]1[C@H](O)[C@@H](O)[C@@H](O)[C@H]1CO` [compound 23, (1S,2S,3S,4S,5R)-4-(n-Hexylamino)-5-(hydroxymethyl)cyclopentane-1,2,3-triol], the Ki in experiment [6] turned out to be 120 ± 20 µM; in [7], 40 ± 8 µM; in experiment [8] it was 0.013 ± 0.003 µM; in [9], 4.9 ± 0.9 µM; in [10], 0.19 ± 0.05 µM; in experiment [11] it was 130 ± 40 µM.
Consider `CCCCCCCCCN[C@@H]1[C@H](O)[C@@H](O)[C@@H](O)[C@H]1CO` [compound 24, (1S,2S,3S,4S,5R)-4-(n-Nonylamino)-5-(hydroxymethyl)cyclopentane-1,2,3-triol], for which the Ki was determined as 23 ± 7 µM in experiment [6]; 1.2 ± 0.5 µM in [7]; 0.0037 ± 0.0016 µM in [8]; 0.52 ± 0.21 µM in [9]; 0.25 ± 0.05 µM in experiment [10]; 73 ± 17 µM in [11].
`CN(C)c1cccc2c(S(=O)(=O)NCCCCCCN[C@@H]3[C@H](O)[C@@H](O)[C@@H](O)[C@H]3CO)cccc12` [compound 27, 5-(Dimethylamino)-N-(6-(((1S,2S,3S,4S,5R)-2,3,4-trihydroxy-5-(hydroxymethyl)cyclopentyl)amino)hexyl)naphthalene-1-sulfonamide]: the Ki came out at 7.8 ± 4.6 µM in experiment [6]; 0.63 ± 0.09 µM in experiment [7]; 0.005 ± 0.001 µM in experiment [8]; 4.4 ± 1.1 µM in [9]; 0.14 ± 0.04 µM in experiment [10]; 16 ± 4 µM in experiment [11].
Take `Cc1c(OCC(F)(F)F)ccnc1C[S+]([O-])c1nc2ccccc2[nH]1` (stereo not shown) [lansoprazole]: the IC50 in experiment [3] (read-out: IC50 gcb α-galactosidase) is 6.4 µM.
